The supplement of paper PMC12370961

Tests used:
Assay in all cases: differential drug sensitivity score (dDSS) relative to sarcoma reference cohort mean DSS (DSS units (0-100 scale difference)); higher = more selective sensitivity than reference sarcomas
Details in all cases: exposure time: 72 h; concentration range: 10-10000 nM
CDS-ZH002 = system: CDS-ZH002 (patient-derived CIC-DUX4 sarcoma tumoroid)
Procedure: (§1)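 Drug response profiling of patient-derived Ewing sarcoma and CIC::DUX4 sarcoma tumoroid models (or cells tested directly after isolation from the tumor, 'direct'). The DSS is the normalised AUC (0-100); dDSS is the sample DSS minus the mean DSS of a 34-sarcoma reference cohort profiled in the same lab.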

CDS-ZH001-2 = system: CDS-ZH001-2 (patient-derived CIC-DUX4 sarcoma tumoroid)
Procedure: as §1

ES-ZH004 = system: ES-ZH004 (patient-derived Ewing sarcoma tumoroid)
Procedure: as §1

ES-ZH002 = system: ES-ZH002 (patient-derived Ewing sarcoma tumoroid)
Procedure: as §1

CDS-ZH001 = system: CDS-ZH001 (patient-derived CIC-DUX4 sarcoma tumoroid)
Procedure: as §1

ES-ZH008 = system: ES-ZH008 (patient-derived Ewing sarcoma tumoroid)
Procedure: as §1

CDS-ZH002 direct = system: CDS-ZH002 direct (CIC-DUX4 sarcoma cells right after isolation)
Procedure: as §1

ES-ZH016 direct = system: ES-ZH016 direct (Ewing sarcoma cells right after isolation)
Procedure: as §1

ES-ZH001 = system: ES-ZH001 (patient-derived Ewing sarcoma tumoroid)
Procedure: as §1

ES-ZH009 = system: ES-ZH009 (patient-derived Ewing sarcoma tumoroid)
Procedure: as §1

ES-ZH016 = system: ES-ZH016 (patient-derived Ewing sarcoma tumoroid)
Procedure: as §1

CDS-ZH003 = system: CDS-ZH003 (patient-derived CIC-DUX4 sarcoma tumoroid)
Procedure: as §1

ES-ZH007 = system: ES-ZH007 (patient-derived Ewing sarcoma tumoroid)
Procedure: as §1

Row | SMILES | differential drug sensitivity score (CDS-ZH002) | differential drug sensitivity score (CDS-ZH001-2) | differential drug sensitivity score (ES-ZH004) | differential drug sensitivity score (ES-ZH002) | differential drug sensitivity score (CDS-ZH001) | differential drug sensitivity score (ES-ZH008) | differential drug sensitivity score (CDS-ZH002 direct) | differential drug sensitivity score (ES-ZH016 direct) | differential drug sensitivity score (ES-ZH001) | differential drug sensitivity score (ES-ZH009) | differential drug sensitivity score (ES-ZH016) | differential drug sensitivity score (CDS-ZH003) | differential drug sensitivity score (ES-ZH007)
1 | CC(=O)O[C@H]1C(=O)[C@@]2(C)[C@H]([C@H](OC(=O)c3ccccc3)[C@]3(O)C[C@H](OC(=O)[C@H](O)[C@@H](NC(=O)c4ccccc4)c4ccccc4)C(C)=C1C3(C)C)[C@]1(OC(C)=O)CO[C@@H]1C[C@@H]2O [Paclitaxel] | -2.2 | 4.1 | 8.9 | 23 | 7.6 | 15.7 | -5.6 | 14 | 24.6 | 19.6 | 16.3 | -8 | 16.2
2 | CCn1cc(-c2cccc(C(F)(F)F)c2)c2sc(C(=N)NC3CCS(=O)(=O)CC3)cc2c1=O [I-BRD9] | -1 | 3.3 | -2.8 | -1.8 | 2.7 | -2.8 | -2.6 | 9.8 | -1.6 | 2.6 | -1.6 | 8.4 | -1.8
3 | C=CC(=O)N1CCN(CCCn2c(=O)c(-c3c(Cl)c(OC)cc(OC)c3Cl)cc3cnc(NC)nc32)CC1 [PRN1371] | -10.8 | -3.3 | 15.6 | 15.7 | -9.1 | 21.1 | -4.8 | 11.1 | 11.9 | -0.7 | 2.4 | -11.5 | 5.7
4 | NS(=O)(=O)OC[C@@H]1C[C@@H](n2ccc3c(N[C@H]4CCc5ccccc54)ncnc32)C[C@@H]1O [Pevonedistat] | -1.6 | -2.1 | 2.4 | 9.3 | 8.7 | 5.9 | 7.6 | 1.9 | 11.4 | 2.9 | 8.3 | 0.7 | 3.6
5 | CCN1CCN(Cc2ccc(Nc3ncc(F)c(-c4cc(F)c5nc(C)n(C(C)C)c5c4)n3)nc2)CC1 [Abemaciclib] | -2.7 | -2.7 | 10.4 | 14.7 | -2.4 | 10.7 | 2.2 | -2.7 | 8.8 | 6.4 | 1.5 | -2.7 | 5.7
6 | O=C(Nc1ccncc1)c1cc([N+](=O)[O-])ccc1Cl | -3 | -2.3 | 11.7 | 14.8 | -0.7 | 12.2 | 5.4 | -0.6 | 11.8 | -3.3 | -2.4 | -14.7 | 0.8
7 | CC[C@H](NC(=O)[C@H](C)NC)C(=O)N1C[C@@H](O)C[C@H]1Cc1c(-c2[nH]c3cc(F)ccc3c2C[C@@H]2C[C@H](O)CN2C(=O)[C@H](CC)NC(=O)[C@H](C)NC)[nH]c2cc(F)ccc12 [Birinapant] | -1.8 | 16.6 | -2.3 | -0.4 | 21.9 | -0.3 | 4.6 | 4.6 | -0.8 | 5.7 | -1.3 | 13 | -0.4
8 | CCCS(=O)(=O)Nc1ccc(F)c(C(=O)c2c[nH]c3ncc(-c4ccc(Cl)cc4)cc23)c1F [Vemurafenib] | -0.6 | -0.6 | -0.6 | -0.6 | -0.6 | -0.6 | -0.6 | -0.6 | -0.6 | 0.8 | -0.6 | 7.4 | -0.6
9 | CN(C)/N=N/c1[nH]cnc1C(N)=O [Dacarbazine] | -0.8 | -0.7 | 0.1 | 7.5 | -0.8 | 2.8 | -0.8 | -0.8 | -0.7 | 0.9 | -0.8 | -0.7 | -0.8
10 | O=C1c2c(O)ccc(O)c2C(=O)c2c(NCCNCCO)ccc(NCCNCCO)c21 [Mitoxantrone] | 3.5 | 9.1 | 5.1 | 21.8 | 5.1 | 9.8 | 0.4 | 11.9 | 10.9 | 10 | 14.7 | -2.1 | -1.8
11 | N#Cc1ccnc(N2C(=O)CC[C@H]2C(=O)N(c2cncc(F)c2)[C@H](C(=O)NC2CC(F)(F)C2)c2ccccc2Cl)c1 [Ivosidenib] | -2.1 | -2.1 | -2.1 | -2.1 | -2.1 | 7.8 | -2.1 | 18.2 | -2.1 | -2.1 | -2.1 | -2.1 | -2.1
12 | Cc1c(C(=O)Nc2ccc(N3C[C@@H](C)O[C@@H](C)C3)nc2)cccc1-c1ccc(OC(F)(F)F)cc1 [Sonidegib] | -1.4 | -1.4 | -1.4 | -1.1 | -1.4 | -1.4 | -1.4 | -1.4 | -1.1 | -1.4 | -1.4 | 2.3 | -1.4
13 | CC[C@@H]1C(=O)N(C)c2cnc(Nc3ccc(C(=O)N[C@H]4CC[C@H](N5CCN(CC6CC6)CC5)CC4)cc3OC)nc2N1C(C)C [Volasertib] | 4 | 13.2 | 0.5 | 9.4 | -2.4 | 4.5 | -3.8 | 16.6 | 10.3 | 16.1 | 8.9 | -2.3 | 2.9
14 | Cc1nc(Nc2n[nH]c3c2CN(C(=O)N[C@H](CN(C)C)c2ccccc2)C3(C)C)c2sccc2n1 | 0 | 5.3 | 9.2 | 15.4 | 5.9 | 4.9 | 3.6 | -4.7 | 5.3 | 12.7 | 0.7 | -5.2 | 17.9
15 | C=CC(=O)Nc1cccc(Nc2nc(Nc3ccc(OCCOC)cc3)ncc2F)c1 [Spebrutinib] | -2.9 | -3.1 | 3.7 | 8.3 | -2.5 | 4.7 | -3.5 | 4.7 | 1.8 | -2 | -1.4 | -2.8 | -1.6
16 | Nc1cccc2c1CN(C1CCC(=O)NC1=O)C2=O (configuration not stated) [Lenalidomide] | -1.2 | -1.2 | 7.7 | 1.8 | -1.2 | 7.4 | -1.2 | -1.2 | 0.4 | -1.2 | -1.2 | -1.2 | -1.2
17 | COc1cccc2c1C(=O)c1c(O)c3c(c(O)c1C2=O)C[C@@](O)(C(C)=O)C[C@@H]3O[C@H]1C[C@H](N)[C@H](O)[C@H](C)O1 [Daunorubicin] | 2.8 | 13.2 | -4.5 | 21.7 | 4.9 | 3.2 | 2.7 | 12.9 | 9.1 | 12.6 | 12.2 | 0.8 | -5.2
18 | COc1cc(N2CCC(N3CCN(C)CC3)CC2)ccc1Nc1ncc(Cl)c(Nc2ccccc2P(C)(C)=O)n1 [Brigatinib] | -4.2 | 7.6 | -3 | 9 | 3.4 | 4.1 | -0.2 | 0.4 | -0.4 | 2.5 | 1.9 | 2 | 1.9
19 | C[C@]12C=CC(=O)C=C1CC[C@@H]1[C@@H]2C(=O)C[C@@]2(C)[C@H]1CC[C@]2(O)C(=O)CO [Prednisone] | -0.5 | -0.5 | -0.5 | -0.5 | -0.5 | -0.5 | -0.5 | -0.5 | -0.5 | -0.5 | -0.5 | -0.5 | -0.5
20 | O=c1ncn2nc(Sc3ccc(F)cc3F)ccc2c1-c1c(Cl)cccc1Cl [Neflamapimod] | -1.2 | 5 | 0.5 | 5.8 | -2.7 | 7.4 | 1 | 11.9 | 3.5 | 5.9 | 2.9 | -5.6 | 0.5
21 | Cc1ccc(Nc2nccc(N(C)c3ccc4c(C)n(C)nc4c3)n2)cc1S(N)(=O)=O [Pazopanib] | 0.6 | 14.6 | -2.9 | -2.9 | -2.9 | -2.9 | -1.4 | 17.4 | -2.9 | -2.9 | -0.7 | 0.4 | -2.9
22 | Nc1cc(C(F)F)c(-c2nc(N3C4CCC3COC4)nc(N3C4CCC3COC4)n2)cn1 [PQR620] | -3.2 | 0.8 | 5.3 | 10.2 | 1.5 | 4.4 | -3.3 | -3.2 | 0.1 | 2.8 | -0.4 | 5 | 2
23 | CNC(=O)c1ccccc1Sc1ccc2c(/C=C/c3ccccn3)n[nH]c2c1 [Axitinib] | -0.9 | -0.8 | -0.9 | 2.2 | -0.9 | -0.9 | -0.9 | 3.8 | -0.9 | 0.4 | -0.9 | 6 | -0.9
24 | CC[C@H](Nc1ncnc2[nH]cnc12)c1nc2cccc(F)c2c(=O)n1-c1ccccc1 [Idelalisib] | -1.4 | -1.3 | -1.5 | 1.3 | -1.4 | -1.5 | -1.5 | -1.5 | -1.5 | -1.5 | 1.5 | 2.9 | -1.5
25 | COCC[n+]1c2c(n(Cc3cnccn3)c1C)C(=O)c1ccccc1C2=O [YM155] | -4.4 | 2.5 | 9.9 | 9.6 | -2 | 6.8 | -0.4 | 2.3 | 5.7 | 9.3 | 10.2 | 9.6 | 10.1
26 | COc1cc(Nc2ncc3c(n2)-c2ccc(Cl)cc2C(c2c(F)cccc2OC)=NC3)ccc1C(=O)O [Alisertib] | -3.7 | 5.5 | -11.3 | 21.5 | -3.4 | 8.2 | -7.3 | 17.2 | 20 | 15.8 | 15.3 | -0.9 | 8.5
27 | O=C(Cc1ccc(-c2ccc(OCCN3CCOCC3)cc2)cn1)NCc1ccccc1 [Tirbanibulin] | 4 | 1.4 | 5.9 | 13.5 | 8.2 | 6.4 | 1.7 | 7.2 | 9.3 | 10.5 | 11.4 | -7.7 | 4.5
28 | Nc1nc(Cl)nc2c1ncn2[C@@H]1O[C@H](CO)[C@@H](O)[C@@H]1F [Clofarabine] | -4.3 | -1.8 | 4.8 | 20.2 | -12 | 3.6 | -4.3 | 8.4 | 17.7 | 3.9 | 15.7 | -4.8 | 19
29 | CCS(=O)(=O)N1CCC([C@@H](C)n2c(C)c(C(=O)NCc3c(OC)cc(C)[nH]c3=O)c3ccccc32)CC1 [CPI169] | -0.4 | -0.4 | -0.4 | -0.4 | -0.4 | -0.4 | -0.4 | 3.3 | -0.4 | -0.3 | -0.4 | -0.3 | -0.4
